These compounds were tested against BRD4 (Homo sapiens (Human), UniProt O60885). Conditions: read-out: BRD4 IC50 (μM gmean).
For COC(=O)N1c2ccc3c(nc(CCn4ccccc4=O)n3CCN(C)[C@H]3CCOC3)c2CC[C@@H]1C [Example 326], the IC50 was 1 to 1000 µM. With COC(=O)N1c2ccc3c(nc(CC(C(=O)O)c4ccc(F)c(F)c4)n3C3CCCC3)c2CC[C@@H]1C (stereo partly drawn) [Example 751] the IC50 was 1 to 1000 µM. For COC(=O)N1c2ccc3c(nc(S(=O)(=O)c4ccccc4)n3[C@H]3CC[C@H](C(=O)O)CC3)c2CC[C@@H]1C [Example 895], the IC50 was 1 to 1000 µM. For COC(=O)N1c2ccc3c(nc(Cc4cncc(C5CC5)n4)n3[C@@H]3CCC[C@@H](C(=O)O)C3)c2CC[C@@H]1C [Example 665], the IC50 was 1 to 1000 µM. Work on COC(=O)N1c2ccc3c(nc(CCn4ccccc4=O)n3CCNCc3ccn(C)n3)c2CC[C@@H]1C [Example 316] yielded an IC50 of 1 to 1000 µM. COC(=O)N1c2ccc3c(nc(CC4CCCCC4)n3[C@@H]3CCC[C@@H](C(=O)O)C3)c2CC[C@@H]1C [Example 575] gave an IC50 of 1 to 1000 µM. In the case of COC(=O)N1c2ccc3c(nc(CC(C(=O)O)c4ccc(C)c(F)c4)n3C3CCCOC3)c2CC[C@@H]1C (stereo partly drawn) [Example 783], the IC50 is reported as 1 to 1000 µM. COC(=O)N1c2ccc3c(nc(Cn4ccccc4=O)n3C3CCOCC3)c2CC[C@@H]1C [Example 259] was tested, and the IC50 was 1 to 1000 µM. COC(=O)N1c2ccc3c(nc(CCn4ccccc4=O)n3CC(=O)NCc3cccnc3)c2CC[C@@H]1C [Example 375] was tested, and the IC50 was 1 to 1000 µM. Compound COC(=O)N1c2ccc3c(nc(CCn4cccn4)n3CCN(C)CCO)c2CC[C@@H]1C [Example 296] has an IC50 of 1 to 1000 µM. Work on COC(=O)N1c2ccc3c(nc(C(=O)N(C)C4CCCCC4)n3[C@@H]3CCC[C@@H](C(=O)O)C3)c2CC[C@@H]1C [Example 939] yielded an IC50 of 1 to 1000 µM. For COC(=O)N1c2ccc3c(nc(C)n3CCN3CCOCC3)c2CC[C@@H]1C [Example 248], the IC50 was 1 to 1000 µM. COC(=O)N1c2ccc3c(nc(CC4CCC(C#N)CC4)n3C3CCCC(C(=O)O)C3)c2CC[C@@H]1C (stereo partly drawn) [Example 726] was tested, and the IC50 was 1 to 1000 µM. Compound COC(=O)N1c2ccc3c(nc(CC(C(=O)O)c4ccccc4)n3C3CCCC(OC)C3)c2CC[C@@H]1C (stereo partly drawn) [Example 632] has an IC50 of 1 to 1000 µM. Work on COC(=O)N1c2ccc3c(nc(Cn4cc(Cl)cn4)n3[C@H]3CC[C@H](C(=O)O)CC3)c2CC[C@@H]1C [Example 737] yielded an IC50 of 1 to 1000 µM. For COC(=O)N1c2ccc3c(nc(Cc4ccccc4)n3[C@H]3CC[C@@](C)(C(=O)O)CC3)c2CC[C@@H]1C [Example 26], the IC50 was 1 to 1000 µM. For COC(=O)N1c2ccc3c(nc(Cc4ccccc4)n3[C@H]3CCC[C@H](c4nnn[nH]4)C3)c2CC[C@@H]1C [Example 282, methyl (S)-3-((1S,3S)-3-(1H-tetrazol-5-yl)cyclohexyl)-2-benzyl-7-methyl-3,7,8,9-tetrahydro-6H-imidazo[4,5-f]quinoline-6-carboxylate], the IC50 was 1 to 1000 µM. With COC(=O)N1c2ccc3c(nc(C(C)Cn4cccn4)n3C3CCS(=O)(=O)C3)c2CC[C@@H]1C (stereo partly drawn) [Example 956] the IC50 was 1 to 1000 µM. Compound COC(=O)N1c2ccc3c(nc(CCn4ccccc4=O)n3[C@@H]3CCC[C@@H](C(=O)O)C3)c2CC[C@@H]1C [Example 871] has an IC50 of 1 to 1000 µM. Compound COC(=O)N1c2ccc3c(nc(Cc4ccccc4)n3[C@H]3CCC[C@@H](c4nnn[nH]4)C3)c2CC[C@@H]1C [Example 280, methyl (S)-3-((1S,3R)-3-(1H-tetrazol-5-yl)cyclohexyl)-2-benzyl-7-methyl-3,7,8,9-tetrahydro-6H-imidazo[4,5-f]quinoline-6-carboxylate] has an IC50 of 1 to 1000 µM. COC(=O)N1c2ccc3c(nc(N(C)c4ccc(C)cc4)n3[C@@H]3CCC[C@@H](C(=O)O)C3)c2CC[C@@H]1C [Example 591] gave an IC50 of 1 to 1000 µM. COC(=O)N1c2ccc3c(nc(Cn4cc(Cl)cn4)n3[C@@H]3CCC[C@@H](C(=O)O)C3)c2CC[C@@H]1C [Example 643] showed an IC50 of 1 to 1000 µM. COC(=O)N1c2ccc3c(nc(CC(C(=O)O)c4ccc(C5CC5)cc4)n3C3CCCOC3)c2CC[C@@H]1C (stereo partly drawn) [Example 904] was tested, and the IC50 was 1 to 1000 µM. COC(=O)N1c2ccc3c(nc(CCn4cccn4)n3CC(=O)NCC3(C)COC3)c2CC[C@@H]1C [Example 364] gave an IC50 of 1 to 1000 µM. COC(=O)N1c2ccc3c(nc(C(C)Cn4cc(C)cn4)n3C3CCS(=O)(=O)C3)c2CC[C@@H]1C (stereo partly drawn) [Example 834] showed an IC50 of 1 to 1000 µM. With COC(=O)N1c2ccc3c(nc(C(C)Cc4ccccc4)n3C3CCNCC3)c2CC[C@@H]1C (stereo partly drawn) [Example 803] the IC50 was 1 to 1000 µM. COC(=O)N1c2ccc3c(nc(Nc4ccncc4F)n3[C@H]3CC[C@H](C(=O)O)CC3)c2CC[C@@H]1C [Example 933] was tested, and the IC50 was 1 to 1000 µM. With COC(=O)N1c2ccc3c(nc(CCn4cccn4)n3CC(=O)N(C)CC(=O)N(C)C)c2CC[C@@H]1C [Example 351] the IC50 was 1 to 1000 µM. COC(=O)N1c2ccc3c(nc(CCn4ccccc4=O)n3CC(=O)NCc3cc(C)no3)c2CC[C@@H]1C [Example 391] showed an IC50 of 1 to 1000 µM. For COC(=O)N1c2ccc3c(nc(CC(C(=O)O)c4ccccc4)n3-c3cccc(C#N)c3)c2CC[C@@H]1C (stereo partly drawn) [Example 905], the IC50 was 1 to 1000 µM. For COC(=O)N1c2ccc3c(nc(Cc4ccccc4C#N)n3[C@H]3CC[C@H](C(=O)O)CC3)c2CC[C@@H]1C [Example 706], the IC50 was 1 to 1000 µM. Compound COC(=O)N1c2ccc3c(nc(C(C)Cn4cc(Cl)cn4)n3C3CCS(=O)(=O)C3)c2CC[C@@H]1C (stereo partly drawn) [Example 930] has an IC50 of 1 to 1000 µM. With COC(=O)N1c2ccc3c(nc(CCn4ccccc4=O)n3CC(=O)NCc3ccncn3)c2CC[C@@H]1C [Example 373] the IC50 was 1 to 1000 µM. For COC(=O)N1c2ccc3c(nc(C(C)Cc4cnn(C)c4)n3C3CCNCC3)c2CC[C@@H]1C (stereo partly drawn) [Example 951], the IC50 was 1 to 1000 µM. Compound COC(=O)N1c2ccc3c(nc(CCn4cccn4)n3CCN(C)C3CCOCC3)c2CC[C@@H]1C [Example 301] has an IC50 of 1 to 1000 µM. With COC(=O)N1c2ccc3c(nc(CCn4ccccc4=O)n3CC(=O)N3CCn4ccnc4C3)c2CC[C@@H]1C [Example 402] the IC50 was 1 to 1000 µM. COC(=O)N1c2ccc3c(nc(Cc4ccccc4)n3[C@@H]3CCC34CCNCC4)c2CC[C@@H]1C [Example 112, methyl (S)-2-benzyl-7-methyl-3-((R)-7-azaspiro[3.5]nonan-1-yl)-3,7,8,9-tetrahydro-6H-imidazo[4,5-f]quinoline-6-carboxylate] gave an IC50 of 1 to 1000 µM. COC(=O)N1c2ccc3c(nc(Cc4ccc(NC(C)=O)c(F)c4)n3[C@H]3CC[C@H](C(=O)O)CC3)c2CC[C@@H]1C [Example 639] showed an IC50 of 1 to 1000 µM. With COC(=O)N1c2ccc3c(nc(CC(C(=O)O)c4ccc(Cl)cc4)n3C3CCCOC3)c2CC[C@@H]1C (stereo partly drawn) [Example 495] the IC50 was 1 to 1000 µM. COC(=O)N1c2ccc3c(nc(Cc4ccc(OC)c(OC)c4)n3[C@@H]3CCC[C@@H](C(=O)O)C3)c2CC[C@@H]1C [Example 641] was tested, and the IC50 was 1 to 1000 µM. With COC(=O)N1c2ccc3c(nc(CCn4cccn4)n3CC(=O)N3CCC(O)CC3)c2CC[C@@H]1C [Example 352] the IC50 was 1 to 1000 µM. In the case of COC(=O)N1c2ccc3c(nc(CCc4ccncc4)n3C)c2CC[C@@H]1C [Example 14], the IC50 is reported as 1 to 1000 µM. For COC(=O)N1c2ccc3c(nc(Cc4ccc(OC)c(Cl)c4)n3[C@H]3CC[C@H](C(=O)O)CC3)c2CC[C@@H]1C [Example 508], the IC50 was 1 to 1000 µM. In the case of COC(=O)N1c2ccc3c(nc(C(C)(O)c4ccccc4)n3C3CCCC(C(=O)O)C3)c2CC[C@@H]1C (stereo partly drawn) [Example 542], the IC50 is reported as 1 to 1000 µM. COC(=O)N1c2ccc3c(nc(C4(c5cnccn5)CC4)n3[C@@H]3CCC[C@@H](C(=O)O)C3)c2CC[C@@H]1C [Example 856] was tested, and the IC50 was 1 to 1000 µM. With COC(=O)N1c2ccc3c(nc(CCn4cccn4)n3CC(=O)N3CC[C@H](NC(C)=O)C3)c2CC[C@@H]1C [Example 335, methyl (S)-2-(2-(1H-pyrazol-1-yl)ethyl)-3-(2-((S)-3-acetamidopyrrolidin-1-yl)-2-oxoethyl)-7-methyl-3,7,8,9-tetrahydro-6H-imidazo[4,5-f]quinoline-6-carboxylate] the IC50 was 1 to 1000 µM. Work on COC(=O)N1c2ccc3c(nc(CN4CCc5ccccc5C4=O)n3[C@@H]3CCC[C@@H](C(=O)O)C3)c2CC[C@@H]1C [Example 758] yielded an IC50 of 1 to 1000 µM. In the case of COC(=O)N1c2ccc3c(nc(-c4ccccc4)n3CCN3CCOCC3)c2CC[C@@H]1C [Example 250], the IC50 is reported as 1 to 1000 µM. Compound COC(=O)N1c2ccc3c(nc(C(C)Cn4cccn4)n3C3CCCC(C(=O)O)C3)c2CC[C@@H]1C (stereo partly drawn) [Example 878] has an IC50 of 1 to 1000 µM. COC(=O)N1c2ccc3c(nc(C[C@H](C(=O)O)c4ccccc4)n3C)c2CC[C@@H]1C [Example 135, (S)-3-((S)-6-(methoxycarbonyl)-3,7-dimethyl-6,7,8,9-tetrahydro-3H-imidazo[4,5-f]quinolin-2-yl)-2-phenylpropanoic Acid] was tested, and the IC50 was 1 to 1000 µM. COC(=O)N1c2ccc3c(nc(Cn4cc(C5CC5)cn4)n3[C@H]3CC[C@H](C(=O)O)CC3)c2CC[C@@H]1C [Example 733] showed an IC50 of 1 to 1000 µM. In the case of COC(=O)N1c2ccc3c(nc(Cc4cnc(Cl)c(C)n4)n3[C@@H]3CCC[C@@H](C(=O)O)C3)c2CC[C@@H]1C [Example 745], the IC50 is reported as 1 to 1000 µM. COC(=O)N1c2ccc3c(nc(Nc4ccc(Cl)cc4)n3[C@@H]3CCC[C@@H](C(=O)O)C3)c2CC[C@@H]1C [Example 831] showed an IC50 of 1 to 1000 µM. COC(=O)N1c2ccc3c(nc(Cc4ccccc4)n3C3CCN(C)CC3)c2CC[C@@H]1C [Example 257] gave an IC50 of 1 to 1000 µM. Compound COC(=O)N1c2ccc3c(nc(Cc4ccccc4)n3[C@H]3CC[C@H](C#N)CC3)c2CC[C@@H]1C [Example 255] has an IC50 of 1 to 1000 µM. For COC(=O)N1c2ccc3c(nc(CC4CCC(OC)CC4)n3C3CCC(C(=O)O)CC3)c2CC[C@@H]1C (stereo partly drawn) [Example 729], the IC50 was 1 to 1000 µM. In the case of COC(=O)N1c2ccc3c(nc(CC(C(=O)O)c4ccccc4)n3-c3cccc(OC)c3)c2CC[C@@H]1C (stereo partly drawn) [Example 516], the IC50 is reported as 1 to 1000 µM. In the case of COC(=O)N1c2ccc3c(nc(Cc4cccc(OC(F)F)n4)n3[C@@H]3CCC[C@@H](C(=O)O)C3)c2CC[C@@H]1C [Example 593], the IC50 is reported as 1 to 1000 µM. For COC(=O)N1c2ccc3c(nc(CCn4ccccc4=O)n3CCCS(C)(=O)=O)c2CC[C@@H]1C [Example 261], the IC50 was 1 to 1000 µM. Compound COC(=O)N1c2ccc3c(nc(C(C)Cn4cc(C(F)F)cn4)n3C3CCCC(C(=O)O)C3)c2CC[C@@H]1C (stereo partly drawn) [Example 492] has an IC50 of 1 to 1000 µM. COC(=O)N1c2ccc3c(nc(CCn4ccccc4=O)n3CCNCC(=O)N3CCCC3)c2CC[C@@H]1C [Example 324] gave an IC50 of 1 to 1000 µM. COC(=O)N1c2ccc3c(nc(Cc4ccccc4)n3C3CCNCC3)c2CC[C@@H]1C [Example 90] gave an IC50 of 1 to 1000 µM. COC(=O)N1c2ccc3c(nc(C(C)Cn4cc(C(F)F)cn4)n3C3CCCC(C(=O)O)C3)c2CC[C@@H]1C (stereo partly drawn) [Example 862] gave an IC50 of 1 to 1000 µM.

Source: patent US11292791B2 (priority 2017, dated 2022)
